# According to patent US8637092B2, “Pharmaceutical composition for treating diabetes and its process for preparation” (Tasly Pharmaceutical Group Co., Ltd., priority 2007, dated 2014):
# Test system: STZ high-blood-glucose rats
# Assay: Efficacy test: blood glucose in streptozotocin (STZ) induced high-blood-glucose rats
# Type: in vivo
# Details: STZ model male SD rats, mean ± SD, n = 10
# Method: Sixty of male SD rats with SPF grade, weighed 200-220 g. Tested drugs (TL-1, TL-2 and TL-3) were powder of the extract respectively prepared by Examples 3, 8 and 9. SD rats were fasted overnight after one-week adaptation, intraperitoneal and injected a solution of 2% (W/V) STZ prepared with […] citric acid buffer solution (pH 4.4) (65 mg/kg). Three days later, the blood was sampled from tail vein to assay blood glucose. Those animals with blood glucose level equal to or higher than 16.7 mmol/L were considered to be successful model. The modeled rats were randomly divided into model group, Metformin (125 mg/kg) group and different treatment groups (corresponding to 15.5 g crude drugs/kg). After one-week adaptation and the blood glucose detection, rats were administered by gastric infusion, once a day. All of the drugs were diluted with physiological saline to prepare into suspension for administration. Animals were free to access of food and water during the 15-day testing period. At the seventh and fourteenth day after administration, the rats were fasted for two hours after administration. Respectively, blood was sampled from tail vein to assay blood glucose with blood glucose meter (one-touch ultra). At the same time, the body weights of the rats were measured. Results were expressed as mean±SD ( X±SD), and t-test was used to evaluate the significant difference of measurement data between two groups.
# [1] = gastric infusion once a day, Metformin 125 mg/kg, TL 15.5 g crude drugs/kg, fasted 2 h, tail vein blood
smiles,measurement,setting,value
CN(C)C(=N)N=C(N)N [Metformin],Blood glucose level before administration,baseline before gastric infusion,21.61 ± 2.066 mmol/L
same,"Blood glucose level, 14 days after administration",[1],17.54 ± 1.222 mmol/L
same,"blood glucose level, 7 days after administration",[1],18.64 ± 0.783 mmol/L
